Columns and labels:
Type in all cases: in vivo
[1] = tested on: barnyardgrass (Echinochloa crusgalli); experiment: Example 6, Procedure II: Herbicide No. 1 + alachlor (No. 7) with antidotes
Method: (§1) Containers were filled and compacted with a fumigated silt loam top soil to a depth of about 1.3 cm from the top of the container. A first container was designated as an untreated control, a second container was designated as a herbicide control, and a third container was designated as a herbicide + antidote test container. Each of the containers was seeded with a crop species. A measured amount of herbicide dispersed or dissolved in acetone was applied to a measured quantity of soil. To this same quantity of soil treated with herbicide, there was added a measured amount of antidote dispersed or dissolved in acetone. The quantity of soil treated with the herbicide and antidote was thoroughly mixed to incorporate the herbicide and antidote in the soil uniformly. The seed bed in the third container of soil was covered with the soil treated with the herbicide and antidote and the container was leveled. For each test series, the seed beds of the first and second containers were likewise covered by soil layers. the cover layer of the first container was not treated with herbicide or antidote.
(§2) The containers were then placed on a bench in a greenhouse and sub-irrigated as required for the duration of the test. […] Plant response is measured in terms of percent injury. Antidote efficacy is indicated as the difference in plant injury by the herbicide(s) without the antidote and with the antidote.
(§3) This procedure is the same as Procedure I, but modified in the manner that after incorporation of the chemicals (herbicide and antidote) the containers with the covered seedbed were treated with an initial overhead irrigation equivalent to 0.6 cm rainfall, then subsequently sub-irrigated as required on greenhouse benches.
(§4) In the series of greenhouse tests described below, for routine screening purposes the herbicide/antidote compositions were tested in crop/weed combinations involving corn as the crop and either or both of the weeds barnyardgrass (Echinochloa crusgalli), a monocotyledonous weed, and velvetleaf (Abutilon theophrasti), a dicotyledonous weed. In the tables below, these weeds are indicated by the symbols "BYG" and "VL", respectively.
(§5) This example was designed to investigate the antidotal efficacy of a plurality of antidotal compounds against a composition comprising Herbicide No. 1 in combination with Herbicide No. 7 (alachlor). The antidotal compounds used herein were Nos. 1, 2, 7, 13 and 15.
(§6) In this example, Procedure II described above was followed. The data from the tests in this example is shown in Table 6 and represents averages of duplicate replications.

[2] = tested on: velvetleaf (Abutilon theophrasti); experiment: as above
Method: as §1, §2, §3, §4, §5, §6

[3] = tested on: barnyardgrass (Echinochloa crusgalli); experiment: Example 10, Procedure II: Herbicide No. 1 + propachlor (No. 5) with antidotes
Method: as §1, §2, §3, §4
(§7) In this test, the safening effect of various antidotes on the herbicidal combination of Herbicide No. 1 and another α-chloroacetanilide co-herbicide, propachlor, (Herbicide No. 5) was investigated. Propachlor is the active ingredient in the commercial herbicide RAMROD®. Procedure II was also used in this test as in the preceding example.

[4] = tested on: velvetleaf (Abutilon theophrasti); experiment: as above
Method: as §1, §2, §3, §4, §7

[5] = tested on: barnyardgrass (Echinochloa crusgalli); experiment: Example 11, Procedure II: Herbicide No. 1 + metazachlor (No. 14) with antidotes
Method: as §1, §2, §3, §4
(§8) In this example, yet another α-chloroacetanilide co-herbicide, metazachlor (Herbicide No. 14) was combined with Herbicide No. 1 for investigation of the effect of various safeners on that composition. Metazachlor is the active ingredient in the commercial herbicide BUTISAN® S, used here as a 500 g/L formulation.

[6] = tested on: velvetleaf (Abutilon theophrasti); experiment: as above
Method: as §1, §2, §3, §4, §8

[7] = tested on: Giant foxtail (Setaria fabergi); experiment: Example 24, Procedure II: Herbicide No. 1 + co-herbicides Nos. 4, 6, 7, 12 with Antidote Nos. 15 and 17-21
Method: as §1, §2, §3
(§9) In other greenhouse tests, using Procedure II described above, the safening efficacy of Antidote Nos. 15 and 17-21 was evaluated against Herbicide No. 1 in corn in the presence of Giant foxtail (Setaria fabergi) and Velvetleaf (Abutilon theophrasti) as representative annual monocotyledonous and dicotyledonous weeds, respectively.
(§10) Test results are shown in Tables 23A and 23B wherein the indicated plant inhibition represents the average of duplicate replications, with observations being made thirteen (13) days after application of the chemicals. Giant foxtail and Velvetleaf are represented by the symbols "GFT" and "VL", respectively. The data in Table 23A show the test results using the antidotes at 2.24 kg/ha, whereas in Table 23B, the antidotal rate was reduced to 0.56 kg/ha.
(§11) The tests described in Example 23 were duplicated, but in this example a variety of co-herbicides were included to ascertain the efficacy of the antidotes against combinations of Herbicide No. 1 and Herbicides Nos. 4, 6, 7 and 12 as co-herbicides. Test results are shown in Table 24, wherein the antidote application rate was 2.24 kg/ha.

[8] = tested on: corn; experiment: as above
Method: as §1, §2, §3, §9, §10, §11

[9] = Herbicide No.1 0.14 + No.7 4.48 kg/ha + antidote 2.24 kg/ha
[10] = Herbicide No.1 0.14 + No.7 4.48 kg/ha + antidote 8.96 kg/ha
[11] = Herbicide No.1 0.56 + No.7 4.48 kg/ha + antidote 2.24 kg/ha
[12] = Herbicide No.1 0.56 + No.7 4.48 kg/ha + antidote 8.96 kg/ha
[13] = Herbicide No.1 0.14 kg/ha + Herbicide No.5 4.48 kg/ha, antidote rate 2.24 kg/ha
[14] = Herbicide No.1 0.14 kg/ha + Herbicide No.5 4.48 kg/ha, antidote rate 8.96 kg/ha
[15] = Herbicide No.1 0.56 kg/ha + Herbicide No.5 4.48 kg/ha, antidote rate 2.24 kg/ha
[16] = Herbicide No.1 0.56 kg/ha + Herbicide No.5 4.48 kg/ha, antidote rate 8.96 kg/ha
[17] = Herbicide No.1 0.56 kg/ha + Herbicide No.14 3.36 kg/ha, antidote rate 2.24 kg/ha
[18] = Herbicide No.1 0.56 kg/ha + Herbicide No.14 3.36 kg/ha, antidote rate 8.96 kg/ha
[19] = Herbicide No.1 1.12 kg/ha + Herbicide No.14 3.36 kg/ha, antidote rate 2.24 kg/ha
[20] = Herbicide No.1 1.12 kg/ha + Herbicide No.14 3.36 kg/ha, antidote rate 8.96 kg/ha
[21] = Herb. No. 1 0.07 Kg/ha + Co-Herb. No. 4 1.12 Kg/ha + antidote 2.24 Kg/ha
[22] = Herb. No. 1 0.07 Kg/ha + Co-Herb. No. 6 0.14 Kg/ha + antidote 2.24 Kg/ha
[23] = Herb. No. 1 0.07 Kg/ha + Co-Herb. No. 7 0.28 Kg/ha + antidote 2.24 Kg/ha
[24] = Herb. No. 1 0.07 Kg/ha + Co-Herb. No. 12 0.28 Kg/ha + antidote 2.24 Kg/ha
[25] = Herb. No. 1 0.14 Kg/ha + Co-Herb. No. 4 1.12 Kg/ha + antidote 2.24 Kg/ha
[26] = Herb. No. 1 0.14 Kg/ha + Co-Herb. No. 6 0.14 Kg/ha + antidote 2.24 Kg/ha
[27] = Herb. No. 1 0.14 Kg/ha + Co-Herb. No. 7 0.28 Kg/ha + antidote 2.24 Kg/ha
[28] = Herb. No. 1 0.14 Kg/ha + Co-Herb. No. 12 0.28 Kg/ha + antidote 2.24 Kg/ha
[29] = Herb. No. 1 0.28 Kg/ha + Co-Herb. No. 4 1.12 Kg/ha + antidote 2.24 Kg/ha
[30] = Herb. No. 1 0.28 Kg/ha + Co-Herb. No. 6 0.14 Kg/ha + antidote 2.24 Kg/ha
[31] = Herb. No. 1 0.28 Kg/ha + Co-Herb. No. 7 0.28 Kg/ha + antidote 2.24 Kg/ha
[32] = Herb. No. 1 0.28 Kg/ha + Co-Herb. No. 12 0.28 Kg/ha + antidote 2.24 Kg/ha
[33] = Herb. No. 1 0.56 Kg/ha + Co-Herb. No. 4 1.12 Kg/ha + antidote 2.24 Kg/ha
[34] = Herb. No. 1 0.56 Kg/ha + Co-Herb. No. 6 0.14 Kg/ha + antidote 2.24 Kg/ha
[35] = Herb. No. 1 0.56 Kg/ha + Co-Herb. No. 7 0.28 Kg/ha + antidote 2.24 Kg/ha
[36] = Herb. No. 1 0.56 Kg/ha + Co-Herb. No. 12 0.28 Kg/ha + antidote 2.24 Kg/ha

SMILES: O=C1OC(=O)c2cccc3cccc1c23 [compound 2]
- % Injury BYG [1, 9]: 100%
- % Injury BYG [1, 10]: 100%
- % Injury BYG [1, 11]: 100%
- % Injury BYG [1, 12]: 100%
- % Injury VL [2, 9]: 70%
- % Injury VL [2, 10]: 75%
- % Injury VL [2, 11]: 90%
- % Injury VL [2, 12]: 90%
- % Injury BYG [3, 13]: 100%
- % Injury BYG [3, 14]: 99%
- % Injury BYG [3, 15]: 99%
- % Injury BYG [3, 16]: 99%
- % Injury VL [4, 13]: 60%
- % Injury VL [4, 14]: 80%
- % Injury VL [4, 15]: 75%
- % Injury VL [4, 16]: 80%
- % Injury BYG [5, 17]: 99%
- % Injury BYG [5, 18]: 99%
- % Injury BYG [5, 19]: 100%
- % Injury BYG [5, 20]: 100%
- % Injury VL [6, 17]: 85%
- % Injury VL [6, 18]: 90%
- % Injury VL [6, 19]: 97%
- % Injury VL [6, 20]: 85%

SMILES: C=CCN(CC=C)C(=O)C(Cl)Cl [compound 1]
- % Injury BYG [1, 9]: 100%
- % Injury BYG [1, 10]: 100%
- % Injury BYG [1, 11]: 100%
- % Injury BYG [1, 12]: 100%
- % Injury VL [2, 9]: 75%
- % Injury VL [2, 10]: 80%
- % Injury VL [2, 11]: 80%
- % Injury VL [2, 12]: 85%
- % Injury BYG [3, 13]: 99%
- % Injury BYG [3, 14]: 99%
- % Injury BYG [3, 15]: 98%
- % Injury BYG [3, 16]: 99%
- % Injury VL [4, 13]: 75%
- % Injury VL [4, 14]: 70%
- % Injury VL [4, 15]: 70%
- % Injury VL [4, 16]: 80%
- % Injury BYG [5, 17]: 99%
- % Injury BYG [5, 18]: 100%
- % Injury BYG [5, 19]: 99%
- % Injury BYG [5, 20]: 100%
- % Injury VL [6, 17]: 80%
- % Injury VL [6, 18]: 90%
- % Injury VL [6, 19]: 85%
- % Injury VL [6, 20]: 80%

SMILES: O=C(C(Cl)Cl)N1CCOC12CCCCC2 [compound 7]
- % Injury BYG [1, 9]: 100%
- % Injury BYG [1, 10]: 100%
- % Injury BYG [1, 11]: 100%
- % Injury BYG [1, 12]: 100%
- % Injury VL [2, 9]: 75%
- % Injury VL [2, 10]: 75%
- % Injury VL [2, 11]: 90%
- % Injury VL [2, 12]: 90%
- % Injury BYG [3, 13]: 99%
- % Injury BYG [3, 14]: 98%
- % Injury BYG [3, 15]: 98%
- % Injury BYG [3, 16]: 96%
- % Injury VL [4, 13]: 70%
- % Injury VL [4, 14]: 75%
- % Injury VL [4, 15]: 95%
- % Injury VL [4, 16]: 80%
- % Injury BYG [5, 17]: 99%
- % Injury BYG [5, 18]: 100%
- % Injury BYG [5, 19]: 99%
- % Injury BYG [5, 20]: 99%
- % Injury VL [6, 17]: 80%
- % Injury VL [6, 18]: 85%
- % Injury VL [6, 19]: 90%
- % Injury VL [6, 20]: 90%

SMILES: CCSC(=O)COC(c1ccccc1)c1ccccc1 [compound 21]
- % Inhibition GFT [7, 21]: 65%
- % Inhibition GFT [7, 22]: 100%
- % Inhibition GFT [7, 23]: 100%
- % Inhibition GFT [7, 24]: 100%
- % Inhibition GFT [7, 25]: 60%
- % Inhibition GFT [7, 26]: 100%
- % Inhibition GFT [7, 27]: 100%
- % Inhibition GFT [7, 28]: 99%
- % Inhibition GFT [7, 29]: 65%
- % Inhibition GFT [7, 30]: 99%
- % Inhibition GFT [7, 31]: 98%
- % Inhibition GFT [7, 32]: 100%
- % Inhibition GFT [7, 33]: 70%
- % Inhibition GFT [7, 34]: 100%
- % Inhibition GFT [7, 35]: 100%
- % Inhibition GFT [7, 36]: 99%
- % Inhibition Corn [8, 21]: 5%
- % Inhibition Corn [8, 22]: 0%
- % Inhibition Corn [8, 23]: 0%
- % Inhibition Corn [8, 24]: 0%
- % Inhibition Corn [8, 25]: 5%
- % Inhibition Corn [8, 26]: 5%
- % Inhibition Corn [8, 27]: 0%
- % Inhibition Corn [8, 28]: 5%
- % Inhibition Corn [8, 29]: 0%
- % Inhibition Corn [8, 30]: 5%
- % Inhibition Corn [8, 31]: 5%
- % Inhibition Corn [8, 32]: 10%
- % Inhibition Corn [8, 33]: 5%
- % Inhibition Corn [8, 34]: 10%
- % Inhibition Corn [8, 35]: 15%
- % Inhibition Corn [8, 36]: 20%

Reference: EP0603240B1, “SAFENING HERBICIDAL PYRAZOLYLSULFONYLUREAS” (priority 1991, dated 1993)
